Test results as given in patent publication US9550756B2, “Pyridazinone compounds as phosphodiesterase inhibitors and methods of treating disorders” (Takeda Pharmaceutical Company Limited, priority 2009, dated 2017).

Test system: Male ICR mice
Assay: Improvement of MK-801-induced prepulse inhibition (PPI) deficits
Assay type: in vivo
Details: 0.3 mg/kg, MK-801 0.3 mg/kg s.c., FIG. 3
From the text: Male ICR mice were supplied by CLEA Japan, Inc (Japan). After arrival to the vivarium, animals were allowed a minimum of 1 week for acclimation. They were housed under a 12:12-h light/dark cycle in a temperature- and humidity-controlled laboratory and allowed food and water ad libitum. The care and use of the animals and the experimental protocols used in this research were approved by the Experimental Animal Care and Use Committee of Takeda Pharmaceutical Company, Ltd (Osaka, Japan).
The compounds were suspended in 0.5% methylcellulose in saline or distilled water, and administered by intraperitoneally (i.p.) or orally (p.o.), respectively. Methamphetamine (Dainippon Sumitomo Pharma Co., Ltd.) and MK-801 (Sigma-Aldrich, St Louis, Mo.) were dissolved in saline, and administered subcutaneously (s.c.). […]
PPI is a measure of sensorimotor gating and is one of a few neuropsychological measures in which humans and rodents can be evaluated in a similar fashion (Psychopharmacology (Berl) 2001, vol. 156: 117-154). We evaluated whether compound could reverse PPI deficits induced by MK-801 using male ICR mice. […] Placement of mice inside the cylinders allowed the whole-body startle responses induced by the acoustic stimuli to be measured via the transduction of movement into analog signals by a piezoelectric unit attached to the platform. […]

Structure (SMILES)	MK-801-induced PPI deficits
Cc1nc2n(c(=O)c1CCN1CCC(c3noc4cc(F)ccc34)CC1)CCCC2 [Risperidone]	significantly reversed

Test system: not given
Assay: not given
Details: not given

melting point [°C]	Structure (SMILES)
166 to 167	O=c1ccn(-c2cccc(C(F)(F)F)c2)nc1-c1ccnn1-c1ccc(Cl)cc1 [Example 3, 3-[1-(4-Chlorophenyl)-1H-pyrazol-5-yl]-1-[3-(trifluoromethyl)phenyl]pyridazin-4(1H)-one]
202 to 203	O=c1ccn(-c2ccncc2)nc1-c1ccnn1-c1ccccc1 [Example 31, 3-(1-Phenyl-1H-pyrazol-5-yl)-1-pyridin-4-ylpyridazin-4(1H)-one]
183 to 184	CC(C)n1nccc1-c1nn(-c2cccc(C(F)(F)F)c2)ccc1=O [Example 33, 3-[1-(1-Methylethyl)-1H-pyrazol-5-yl]-1-[3-(trifluoromethyl)phenyl]pyridazin-4(1H)-one]
120 to 121	CC(C)Cn1nccc1-c1nn(-c2cccc(C(F)(F)F)c2)ccc1=O [Example 34, 3-[1-(2-Methylpropyl)-1H-pyrazol-5-yl]-1-[3-(trifluoromethyl)phenyl]pyridazin-4(1H)-one]
189 to 190	O=c1ccn(-c2cccc(C(F)(F)F)c2)nc1-c1ccnn1-c1ccccn1 [Example 35, 3-(1-Pyridin-2-yl-1H-pyrazol-5-yl)-1-[3-(trifluoromethyl)phenyl]pyridazin-4(1H)-one]
149 to 150	O=c1ccn(-c2cccc(Oc3nc4ccccc4[nH]3)c2)nc1-c1ccnn1-c1ccccc1 [Example 37, 1-[3-(1H-Benzimidazol-2-yloxy)phenyl]-3-(1-phenyl-1H-pyrazol-5-yl)pyridazin-4(1H)-one]
167 to 168	O=c1ccn(-c2cccc(C(F)(F)F)c2)nc1-c1ncnn1-c1ccccc1 [Example 42, 3-(1-Phenyl-1H-1,2,4-triazol-5-yl)-1-[3-(trifluoromethyl)phenyl]pyridazin-4(1H)-one]
132 to 134	O=c1c(OC(F)F)cn(-c2cccc(C(F)(F)F)c2)nc1-c1ccnn1-c1ccccc1 [Example 62, 5-(Difluoromethoxy)-3-(1-phenyl-1H-pyrazol-5-yl)-1-[3-(trifluoromethyl)phenyl]pyridazin-4(1H)-one]
218 to 220	O=c1c(O)cn(-c2ccccc2F)nc1-c1ccnn1-c1ccccc1 [Example 63, 1-(2-Fluorophenyl)-5-hydroxy-3-(1-phenyl-1H-pyrazol-5-yl)pyridazin-4(1H)-one]
138 to 140	CC(C)n1cc(-c2nn(-c3cccc(C(F)(F)F)c3)ccc2=O)c(-c2ccccc2)n1 [Example 77, 3-[1-(1-Methylethyl)-3-phenyl-1H-pyrazol-4-yl]-1-[3-(trifluoromethyl)phenyl]pyridazin-4(1H)-one]
